Measured values: US9113629B2, “4-amino-6-(4-substituted-phenyl)-picolinates and 6-amino-2-(4-substituted-phenyl)-pyrimidine-4-carboxylates and their use as herbicides” (DOW AGROSCIENCES LLC, priority 2013, dated 2015)
Where two headings read alike, the source gives them in different places.

Legend:
[1] = tested on: Key Broadleaf Weed and Crop Species; assay: Post-emergent Test II herbicidal activity (Table 5); format: in vivo; conditions: post-emergence, 336 h, post-emergent, 14 days after application; for pest or weed control at 70 g/ha: 70 g ai/ha; for pest or weed control at 140 g/ha: 140 g ai/ha
In short: (§1)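 Spray rates: a highest rate plus ½×, ¼×, ⅛×, 1/16×, all delivered at 187 L/ha to plants at the first–second true leaf stage. Readout is a visual percent injury score at 14 d, where 100 means complete kill.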

[2] = tested on: Key Grass and Sedge Weeds as well as Grass Crops; assay: Post-emergent Test II herbicidal activity (Table 6); format: in vivo; conditions: post-emergence, 336 h; for pest or weed control at 70 g/ha: application rate 70 g ai/ha; for pest or weed control at 140 g/ha: application rate 140 g ai/ha
In short: as §1

[3] = ABUTH: velvetleaf (Abutilon theophrasti), read-out: Visual Growth Reduction (%) 14 Days After Application ABUTH
[4] = AMARE: redroot pigweed (Amaranthus retroflexus), read-out: Visual Growth Reduction (%) 14 Days After Application AMARE
[5] = BRSNN: oilseed-rape, canola (Brassica napus), read-out: Visual Growth Reduction (%) 14 Days After Application BRSNN
[6] = CHEAL: lambsquarters (Chenopodium album), read-out: Visual Growth Reduction (%) 14 Days After Application CHEAL
[7] = EPHHL: wild poinsettia (Euphorbia heterophylla), read-out: Visual Growth Reduction (%) 14 Days After Application EPHHL
[8] = HELAN: sunflower (Helianthus annuus), read-out: Visual Growth Reduction (%) 14 Days After Application HELAN
[9] = VIOTR: wild pansy (Viola tricolor), read-out: Visual Growth Reduction (%) 14 Days After Application VIOTR
[10] = Triticum aestivum, TRZSS (wheat), read-out: Visual Growth Reduction (%) 14 Days After Application, TRZSS
[11] = CYPES: yellow nutsedge (Cyperus esculentus), read-out: Visual Growth Reduction (%) 14 Days After Application, CYPES
[12] = DIGSA: crabgrass (Digitaria sanguinalis), read-out: Visual Growth Reduction (%) 14 Days After Application, DIGSA
[13] = ECHCG: barnyardgrass (Echinochloa crus-galli), read-out: Visual Growth Reduction (%) 14 Days After Application, ECHCG
[14] = ORYSA: rice (Oryza sativa), read-out: Visual Growth Reduction (%) 14 Days After Application, ORYSA
[15] = SETFA: giant foxtail (Setaria faberi), read-out: Visual Growth Reduction (%) 14 Days After Application, SETFA
[16] = SORVU: grain sorghum (Sorghum vulgare), read-out: Visual Growth Reduction (%) 14 Days After Application, SORVU
[17] = ZEAMX: maize, corn (Zea mays), read-out: Visual Growth Reduction (%) 14 Days After Application, ZEAMX

With Cc1c(-c2ccc(C(F)(F)F)c(F)c2)nc(C(=O)O)c(Cl)c1N [Compound 161, 4-amino-3-chloro-6-(3-fluoro-4-(trifluoromethyl)phenyl)-5-methylpicolinic acid] the melting point was 170 to 171.5 °C, the pest or weed control at 70 g/ha [1, 3] was 75 to 84% and the pest or weed control at 140 g/ha [1, 3] was 85 to 94%. For the same compound, the pest or weed control at 70 g/ha [1, 4] was 45 to 59%, the pest or weed control at 140 g/ha [1, 4] was 95 to 100% and the pest or weed control at 70 g/ha [1, 5] was 95 to 100%. The pest or weed control at 140 g/ha [1, 5] was 95 to 100%, the pest or weed control at 70 g/ha [1, 6] was 95 to 100% and the pest or weed control at 140 g/ha [1, 6] was 95 to 100%. It also gave a pest or weed control at 70 g/ha [1, 7] of 0 to 29%, a pest or weed control at 140 g/ha [1, 7] of 0 to 29% and a pest or weed control at 70 g/ha [1, 8] of 95 to 100%. The pest or weed control at 140 g/ha [1, 8] was 95 to 100%, the pest or weed control at 70 g/ha [1, 9] was 0 to 29% and the pest or weed control at 140 g/ha [1, 9] was 0 to 29%. It also gave a pest or weed control at 70 g/ha [2, 10] of 60 to 74%, a pest or weed control at 140 g/ha [2, 10] of 60 to 74% and a pest or weed control at 70 g/ha [2, 11] of 95 to 100%. The pest or weed control at 70 g/ha [2, 12] was 30 to 44%, the pest or weed control at 140 g/ha [2, 12] was 45 to 59% and the pest or weed control at 70 g/ha [2, 13] was 45 to 59%. It also gave a pest or weed control at 140 g/ha [2, 13] of 60 to 74%, a pest or weed control at 70 g/ha [2, 14] of 0 to 29% and a pest or weed control at 140 g/ha [2, 14] of 0 to 29%. For the same compound, the pest or weed control at 70 g/ha [2, 15] was 85 to 94%, the pest or weed control at 140 g/ha [2, 15] was 85 to 94% and the pest or weed control at 70 g/ha [2, 16] was 0 to 29%. For the same compound, the pest or weed control at 140 g/ha [2, 16] was 0 to 29%, the pest or weed control at 70 g/ha [2, 17] was 60 to 74% and the pest or weed control at 140 g/ha [2, 17] was 60 to 74%.

Compound COC(=O)c1nc(-c2ccc(I)c(F)c2)cc(N)c1Cl [Compound 66, methyl 4-amino-3-chloro-6-(3-fluoro-4-iodophenyl)picolinate] has a melting point of 141 to 143 °C, a pest or weed control at 70 g/ha [1, 3] of 85 to 94% and a pest or weed control at 140 g/ha [1, 3] of 85 to 94%. For the same compound, the pest or weed control at 70 g/ha [1, 4] was 95 to 100%, the pest or weed control at 140 g/ha [1, 4] was 95 to 100% and the pest or weed control at 70 g/ha [1, 5] was 45 to 59%. It also gave a pest or weed control at 140 g/ha [1, 5] of 45 to 59%, a pest or weed control at 70 g/ha [1, 6] of 85 to 94% and a pest or weed control at 140 g/ha [1, 6] of 85 to 94%. For the same compound, the pest or weed control at 70 g/ha [1, 7] was 95 to 100%, the pest or weed control at 140 g/ha [1, 7] was 95 to 100% and the pest or weed control at 70 g/ha [1, 8] was 85 to 94%. The pest or weed control at 140 g/ha [1, 8] was 85 to 94%, the pest or weed control at 70 g/ha [1, 9] was 0 to 29% and the pest or weed control at 140 g/ha [1, 9] was 0 to 29%. The pest or weed control at 70 g/ha [2, 10] was 0 to 29%, the pest or weed control at 140 g/ha [2, 10] was 0 to 29% and the pest or weed control at 70 g/ha [2, 11] was 45 to 59%. The pest or weed control at 140 g/ha [2, 11] was 95 to 100%, the pest or weed control at 70 g/ha [2, 12] was 60 to 74% and the pest or weed control at 140 g/ha [2, 12] was 60 to 74%. The pest or weed control at 70 g/ha [2, 13] was 0 to 29%, the pest or weed control at 140 g/ha [2, 13] was 60 to 74% and the pest or weed control at 70 g/ha [2, 14] was 0 to 29%. For the same compound, the pest or weed control at 140 g/ha [2, 14] was 0 to 29%, the pest or weed control at 70 g/ha [2, 15] was 0 to 29% and the pest or weed control at 140 g/ha [2, 15] was 0 to 29%. It also gave a pest or weed control at 70 g/ha [2, 16] of 75 to 84%, a pest or weed control at 140 g/ha [2, 16] of 85 to 94% and a pest or weed control at 70 g/ha [2, 17] of 0 to 29%. It also gave a pest or weed control at 140 g/ha [2, 17] of 0 to 29%.

In the case of Nc1cc(-c2cc(F)c(I)cc2F)nc(C(=O)O)c1Cl [Compound 131], the melting point was 173 to 175 °C, the pest or weed control at 70 g/ha [1, 3] was 95 to 100% and the pest or weed control at 140 g/ha [1, 3] was 95 to 100%. For the same compound, the pest or weed control at 70 g/ha [1, 4] was 95 to 100%, the pest or weed control at 140 g/ha [1, 4] was 95 to 100% and the pest or weed control at 70 g/ha [1, 5] was 95 to 100%. For the same compound, the pest or weed control at 140 g/ha [1, 5] was 95 to 100%, the pest or weed control at 70 g/ha [1, 6] was 95 to 100% and the pest or weed control at 140 g/ha [1, 6] was 95 to 100%. It also gave a pest or weed control at 70 g/ha [1, 7] of 95 to 100%, a pest or weed control at 140 g/ha [1, 7] of 95 to 100% and a pest or weed control at 70 g/ha [1, 8] of 85 to 94%. The pest or weed control at 140 g/ha [1, 8] was 95 to 100%, the pest or weed control at 70 g/ha [1, 9] was 95 to 100% and the pest or weed control at 140 g/ha [1, 9] was 95 to 100%. The pest or weed control at 70 g/ha [2, 10] was 60 to 74%, the pest or weed control at 140 g/ha [2, 10] was 75 to 84% and the pest or weed control at 70 g/ha [2, 11] was 85 to 94%. It also gave a pest or weed control at 140 g/ha [2, 11] of 85 to 94%, a pest or weed control at 70 g/ha [2, 12] of 75 to 84% and a pest or weed control at 140 g/ha [2, 12] of 75 to 84%. For the same compound, the pest or weed control at 70 g/ha [2, 13] was 95 to 100%, the pest or weed control at 140 g/ha [2, 13] was 95 to 100% and the pest or weed control at 70 g/ha [2, 14] was 0 to 29%. It also gave a pest or weed control at 140 g/ha [2, 14] of 30 to 44%, a pest or weed control at 70 g/ha [2, 15] of 95 to 100% and a pest or weed control at 140 g/ha [2, 15] of 95 to 100%. The pest or weed control at 70 g/ha [2, 16] was 60 to 74%, the pest or weed control at 140 g/ha [2, 16] was 75 to 84% and the pest or weed control at 70 g/ha [2, 17] was 85 to 94%. For the same compound, the pest or weed control at 140 g/ha [2, 17] was 85 to 94%.

Work on Cc1c(-c2ccc(OC(F)F)cc2)nc(C(=O)O)c(Cl)c1N [Compound 94, 4-Amino-3-chloro-6-(4-(difluoromethoxy)phenyl)-5-methylpicolinic acid] yielded a melting point of 158.5 to 159.5 °C, a pest or weed control at 70 g/ha [1, 3] of 0 to 29% and a pest or weed control at 140 g/ha [1, 3] of 0 to 29%. The pest or weed control at 70 g/ha [1, 4] was 0 to 29%, the pest or weed control at 140 g/ha [1, 4] was 45 to 59% and the pest or weed control at 70 g/ha [1, 5] was 0 to 29%. It also gave a pest or weed control at 140 g/ha [1, 5] of 0 to 29%, a pest or weed control at 70 g/ha [1, 6] of 85 to 94% and a pest or weed control at 140 g/ha [1, 6] of 85 to 94%. For the same compound, the pest or weed control at 70 g/ha [1, 7] was 0 to 29%, the pest or weed control at 140 g/ha [1, 7] was 0 to 29% and the pest or weed control at 70 g/ha [1, 8] was 85 to 94%. It also gave a pest or weed control at 140 g/ha [1, 8] of 85 to 94%, a pest or weed control at 70 g/ha [1, 9] of 0 to 29% and a pest or weed control at 140 g/ha [1, 9] of 0 to 29%. The pest or weed control at 70 g/ha [2, 10] was 0 to 29%, the pest or weed control at 140 g/ha [2, 10] was 0 to 29% and the pest or weed control at 70 g/ha [2, 11] was 0 to 29%. The pest or weed control at 140 g/ha [2, 11] was 0 to 29%, the pest or weed control at 70 g/ha [2, 12] was 0 to 29% and the pest or weed control at 140 g/ha [2, 12] was 0 to 29%. The pest or weed control at 70 g/ha [2, 13] was 0 to 29%, the pest or weed control at 140 g/ha [2, 13] was 0 to 29% and the pest or weed control at 70 g/ha [2, 14] was 0 to 29%. The pest or weed control at 140 g/ha [2, 14] was 0 to 29%, the pest or weed control at 70 g/ha [2, 15] was 0 to 29% and the pest or weed control at 140 g/ha [2, 15] was 0 to 29%. The pest or weed control at 70 g/ha [2, 16] was 0 to 29%, the pest or weed control at 140 g/ha [2, 16] was 0 to 29% and the pest or weed control at 70 g/ha [2, 17] was 0 to 29%. For the same compound, the pest or weed control at 140 g/ha [2, 17] was 0 to 29%.
